Measured values from PMC10504751, “Chalcone/1,3,4-Oxadiazole/Benzimidazole hybrids as novel anti-proliferative agents inducing apoptosis and inhibiting EGFR & BRAFV^600E” (BMC Chemistry, 2023).

Legend:
BRAF^V600E = test: biochemical
Experimental: To further denature the protein, heat (70° C) was applied for 5 min. […] 10 µL of each reaction was loaded into the precast plates and electrophoresis was allowed to proceed. After completion of electrophoresis, the front part of the precast gel plate (holding hot ATP) was cut and afterwards cast-off. The dried gel was developed using a phosphor screen.

NCI-H322M = test: NCI one-dose SRB anti-proliferative screen; assay type: cell-based; conditions: Homo sapiens; NCI-H322M (Non-Small Cell Lung Cancer), NCI one dose 10 µM; read-out: Cell growth inhibition %
Outline: (§1)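 A sixty-line panel from nine tumour subpanels received each compound at 10 µM in a single-dose format; proliferation was then determined by SRB colorimetry.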

SK-MEL-5 = test: NCI one-dose SRB anti-proliferative screen; assay type: cell-based; conditions: Homo sapiens; SK-MEL-5 (Melanoma), NCI one dose 10 µM; read-out: Cell growth inhibition %
Outline: as §1

SF-539 = test: NCI one-dose SRB anti-proliferative screen; assay type: cell-based; conditions: Homo sapiens; SF-539 (CNS Cancer), NCI one dose 10 µM; read-out: Cell growth inhibition %
Outline: as §1

HCC-2998 = test: NCI one-dose SRB anti-proliferative screen; assay type: cell-based; conditions: Homo sapiens; HCC-2998 (Colon Cancer), NCI one dose 10 µM; read-out: Cell growth inhibition %
Outline: as §1

MDA-MB-231/ATCC = test: NCI one-dose SRB anti-proliferative screen; assay type: cell-based; conditions: Homo sapiens; MDA-MB-231/ATCC (Breast Cancer), NCI one dose 10 µM; read-out: Cell growth inhibition %
Outline: as §1

A549/ATCC = test: NCI one-dose SRB anti-proliferative screen; assay type: cell-based; conditions: Homo sapiens; A549/ATCC (Non-Small Cell Lung Cancer), NCI one dose 10 µM; read-out: Cell growth inhibition %
Outline: as §1

SNB-19 = test: NCI one-dose SRB anti-proliferative screen; assay type: cell-based; conditions: Homo sapiens; SNB-19 (CNS Cancer), NCI one dose 10 µM; read-out: Cell growth inhibition %
Outline: as §1

COLO 205 = test: NCI one-dose SRB anti-proliferative screen; assay type: cell-based; conditions: Homo sapiens; COLO 205 (Colon Cancer), NCI one dose 10 µM; read-out: Cell growth inhibition %
Outline: as §1

NCI-H522 = test: NCI one-dose SRB anti-proliferative screen; assay type: cell-based; conditions: Homo sapiens; NCI-H522 (Non-Small Cell Lung Cancer), NCI one dose 10 µM; read-out: Cell growth inhibition %
Outline: as §1

SNB-75 = test: NCI one-dose SRB anti-proliferative screen; assay type: cell-based; conditions: Homo sapiens; SNB-75 (CNS Cancer), NCI one dose 10 µM; read-out: Cell growth inhibition %
Outline: as §1

M14 = test: NCI one-dose SRB anti-proliferative screen; assay type: cell-based; conditions: Homo sapiens; M14 (Melanoma), NCI one dose 10 µM; read-out: Cell growth inhibition %
Outline: as §1

MALME-3M = test: NCI one-dose SRB anti-proliferative screen; assay type: cell-based; conditions: Homo sapiens; MALME-3M (Melanoma), NCI one dose 10 µM; read-out: Cell growth inhibition %
Outline: as §1

SF-268 = test: NCI one-dose SRB anti-proliferative screen; assay type: cell-based; conditions: Homo sapiens; SF-268 (CNS Cancer), NCI one dose 10 µM; read-out: Cell growth inhibition %
Outline: as §1

TK-10 = test: NCI one-dose SRB anti-proliferative screen; assay type: cell-based; conditions: Homo sapiens; TK-10 (Renal Cancer), NCI one dose 10 µM; read-out: Cell growth inhibition %
Outline: as §1

A498 = test: NCI one-dose SRB anti-proliferative screen; assay type: cell-based; conditions: Homo sapiens; A498 (Renal Cancer), NCI one dose 10 µM; read-out: Cell growth inhibition %
Outline: as §1

MDA-MB-435 = test: NCI one-dose SRB anti-proliferative screen; assay type: cell-based; conditions: Homo sapiens; MDA-MB-435 (Melanoma), NCI one dose 10 µM; read-out: Cell growth inhibition %
Outline: as §1

NCI/ADR-RES = test: NCI one-dose SRB anti-proliferative screen; assay type: cell-based; conditions: Homo sapiens; NCI/ADR-RES (Ovarian Cancer), NCI one dose 10 µM; read-out: Cell growth inhibition %
Outline: as §1

HL-60(TB) = test: NCI one-dose SRB anti-proliferative screen; assay type: cell-based; conditions: Homo sapiens; HL-60(TB) (Leukemia), NCI one dose 10 µM; read-out: Cell growth inhibition %
Outline: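 Activity reflects a single-point exposure at 10 µM, with cell mass determined by a sulforhodamine B dye assay.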

HOP-92 = test: NCI one-dose SRB anti-proliferative screen; assay type: cell-based; conditions: Homo sapiens; HOP-92 (Non-Small Cell Lung Cancer), NCI one dose 10 µM; read-out: Cell growth inhibition %
Outline: as §1

SK-MEL-28 = test: NCI one-dose SRB anti-proliferative screen; assay type: cell-based; conditions: Homo sapiens; SK-MEL-28 (Melanoma), NCI one dose 10 µM; read-out: Cell growth inhibition %
Outline: as §1

EGFR = target: T1, EGFR (Homo sapiens, UniProt P00533); test: EGFR-TK inhibitory assay; assay type: biochemical; conditions: read-out: EGFR Inhibition IC50 ± SEM
T1 construct: EGFR cytoplasmic domain (EGFR-CD, amino acids 645–1186); His6 (N); made in house; host or cells: Sf-9 insect cells (baculovirus; pBlueBacHis2B / pFASTBacHTc)

[1] = system: melanoma LOX-IMVI cell line; test: Propidium iodide anti-proliferative assay in LOX-IMVI; assay type: cell-based, human; conditions: for IC50: Homo sapiens, melanoma LOX-IMVI, 48 h incubation
Experimental: Consequently, the half-maximal inhibitory concentration (IC50) of these compounds was determined in LOX-IMVI cell line using propidium iodide (PI)^31, 32 with Staurosporine (broad spectrum protein kinase inhibitor) as a reference.
Cells whose cell membranes are damaged or have changed permeability are counted as dead ones. […] The medium was removed; the compounds were added to the plates at 10 µM concentrations (in 0.1% DMSO) in triplicates, followed by incubation for 48 h. DMSO (0.1%) was used as control. After incubation, medium was removed followed by the addition of PI (25 µl, 50µg/mL in water/medium) to each well of the plates. At -80 °C, the plates were allowed to freeze for 24 h, followed by thawing at 25 °C. A fluorometer (Polar-Star BMG Tech) was used to record the readings at excitation and emission wavelengths of 530 and 620 nm for each well. The percentage cytotoxicity of compounds was calculated using the following formula:
Where ATC= Absorbance of treated cells and AC= Absorbance of control.

T1 sequence (P00533 669-1210): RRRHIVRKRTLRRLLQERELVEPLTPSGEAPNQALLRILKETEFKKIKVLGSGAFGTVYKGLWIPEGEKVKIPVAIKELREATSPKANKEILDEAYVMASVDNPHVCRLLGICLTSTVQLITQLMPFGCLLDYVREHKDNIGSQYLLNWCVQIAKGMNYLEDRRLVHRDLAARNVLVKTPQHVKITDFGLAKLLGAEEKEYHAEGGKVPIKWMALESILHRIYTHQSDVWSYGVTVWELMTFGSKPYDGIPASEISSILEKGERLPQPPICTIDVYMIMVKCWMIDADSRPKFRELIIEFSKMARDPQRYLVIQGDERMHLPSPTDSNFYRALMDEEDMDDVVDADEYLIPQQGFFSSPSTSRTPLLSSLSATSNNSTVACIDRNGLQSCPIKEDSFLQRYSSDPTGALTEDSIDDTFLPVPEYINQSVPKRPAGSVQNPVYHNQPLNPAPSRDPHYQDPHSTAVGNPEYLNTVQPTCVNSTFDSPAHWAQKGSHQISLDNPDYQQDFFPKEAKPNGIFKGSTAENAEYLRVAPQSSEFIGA
Sequence of BRAF^V600E (P28028 whole entry V585E): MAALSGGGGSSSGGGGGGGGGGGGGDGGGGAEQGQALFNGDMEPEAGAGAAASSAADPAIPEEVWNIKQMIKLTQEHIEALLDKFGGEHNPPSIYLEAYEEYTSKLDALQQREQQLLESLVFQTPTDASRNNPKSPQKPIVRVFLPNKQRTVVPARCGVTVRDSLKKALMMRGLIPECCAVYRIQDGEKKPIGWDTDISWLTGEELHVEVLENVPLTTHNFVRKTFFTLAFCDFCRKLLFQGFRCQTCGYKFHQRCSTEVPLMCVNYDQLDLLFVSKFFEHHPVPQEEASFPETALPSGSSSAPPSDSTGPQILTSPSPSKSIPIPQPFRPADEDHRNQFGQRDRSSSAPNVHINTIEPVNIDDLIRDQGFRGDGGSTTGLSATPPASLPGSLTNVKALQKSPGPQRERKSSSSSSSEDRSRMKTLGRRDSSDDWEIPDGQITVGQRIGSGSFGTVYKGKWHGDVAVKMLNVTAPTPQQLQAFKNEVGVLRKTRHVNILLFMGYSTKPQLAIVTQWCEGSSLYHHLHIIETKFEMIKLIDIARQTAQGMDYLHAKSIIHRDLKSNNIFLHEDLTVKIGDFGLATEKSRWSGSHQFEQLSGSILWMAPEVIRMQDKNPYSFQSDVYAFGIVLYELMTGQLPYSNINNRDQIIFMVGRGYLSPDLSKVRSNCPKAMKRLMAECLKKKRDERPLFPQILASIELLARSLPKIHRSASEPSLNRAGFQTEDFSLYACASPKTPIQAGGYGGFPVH

Structure (SMILES) | IC50 (BRAF^V600E) [nM] | inhibition at 10 µM (NCI-H322M) [%] | inhibition at 10 µM (SK-MEL-5) [%] | inhibition at 10 µM (SF-539) [%] | inhibition at 10 µM (HCC-2998) [%] | inhibition at 10 µM (MDA-MB-231/ATCC) [%] | inhibition at 10 µM (A549/ATCC) [%] | inhibition at 10 µM (SNB-19) [%] | inhibition at 10 µM (COLO 205) [%] | inhibition at 10 µM (NCI-H522) [%] | inhibition at 10 µM (SNB-75) [%] | inhibition at 10 µM (M14) [%] | inhibition at 10 µM (MALME-3M) [%] | inhibition at 10 µM (SF-268) [%] | inhibition at 10 µM (TK-10) [%] | inhibition at 10 µM (A498) [%] | inhibition at 10 µM (MDA-MB-435) [%] | inhibition at 10 µM (NCI/ADR-RES) [%] | inhibition at 10 µM (HL-60(TB)) [%] | inhibition at 10 µM (HOP-92) [%] | other results
COc1ccc(-c2nc3cc(-c4nnc(SCC(=O)Nc5ccc(C(=O)/C=C/c6ccc(Cl)cc6)cc5)o4)ccc3[nH]2)cc1OC [Compound 7q, 2-{5-[2-(3,4-Dimethoxyphenyl)-1 H-benzo[d]imidazol-5-yl]-1,3,4-oxadiazol-2-ylthio}-N-{4-[(E)-3-(4-chlorophenyl)acryloyl]phenyl}acetamide] | 4700 ± 300 | 4.21 | 2.38 | 16.2 | 0 | 4.84 | 0 | 0 | 0 | 1.57 | 0 | 0 | 4.86 | 0 | 0 | 0 | 0 | 0 | 11.3 | 0 | inhibition at 10 µM (SK-MEL-28): 0%; IC50 (EGFR): 3900 ± 300 nM; IC50 [1]: 2500 ± 200 nM
COc1cc(-c2nc3cc(-c4nnc(SCC(=O)Nc5ccc(C(=O)/C=C/c6ccc(Cl)cc6)cc5)o4)ccc3[nH]2)cc(OC)c1OC [Compound 7v, 2-{5-[2-(3,4,5-Trimethoxyphenyl)-1 H-benzo[d]imidazol-5-yl]-1,3,4-oxadiazol-2-ylthio}-N-{4-[(E)-3-(4-chlorophenyl)acryloyl]phenyl}acetamide] | 3100 ± 200 | 3.77 | 8.57 | 25.3 | 0 | 8.4 | 0 | 6.59 | 0 | 7.4 | 14.7 | 0 | 0 | 0.81 | 0 | 16.8 | 1.02 | 0 | 7.46 | 17.8 | inhibition at 10 µM (SK-MEL-28): 0%; IC50 (EGFR): 2800 ± 300 nM; IC50 [1]: 900 ± 100 nM; fold more selective towards LOX-IMVI cell line ([1]; LOX-IMVI vs MCF-10 A): 97 fold
